Tests used:
[1] = system: L. donovani axenic amastigotes; test: Drug sensitivity assay, axenic amastigotes; assay type: cell-based; details: Leishmania donovani
Protocol: The clonal L. donovani cell line LdBOB (derived from MHOM/SD/62/1S-CL2D) was grown as promastigotes at 28°C and as axenic amastigotes at 37°C, as described previously ([25]).
To examine the effects of test compounds on growth in 96-well plates, promastigote or axenic amastigote cultures seeded at 5 × 10^4 parasites mL^–1 were incubated in the presence of 2-fold serial dilutions of test compounds for 72 h. Following incubation, 50 μM resazurin was added to each well and fluorescence (excitation of 528 nm and emission of 590 nm) measured after a further 3 h incubation.

[2] = pKa and Log D7.4 determination; assay type: physicochemical
Protocol: The ionization constant (pKa), octanol-pH 7.4 buffer partition coefficient (Log D7.4), solubility in biorelevant buffers (FaSSIF-V2, FeSSIF-V2, FaSSGF and pH 7.4 phosphate buffered saline (PBS)) and Caco-2 permeability were determined according to previously published methods ([10]).

[3] = In vitro metabolism, liver microsomes; assay type: in vitro ADME, human
Protocol: Compounds were spiked into microsomal matrix prepared in 0.1 M pH 7.4 phosphate buffer containing magnesium chloride (final concentration of 3.3 mM), equilibrated for 5-10 min at 37°C. The reaction was initiated with the addition of freshly prepared solution of NADPH (final 1.3 mM). Control samples without co-factor were included for comparison. Aliquots of the reaction mixtures were taken periodically over 60 min and quenched with acetonitrile containing internal standards (metolazone and diazepam). Quenched samples were maintained on ice for approximately 20-30 min, centrifuged (for 5 min) and the supernatant was analyzed by LC-MS.
In vitro intrinsic clearance (CLint, μL/min/mg or μL/min/10^6 cells) values were calculated from the apparent first order degradation rate constant divided by the microsome concentration or the hepatocyte cell number (10^6 viable cells/mL). In vitro CLint values were then divided by the fraction unbound in the in vitro test system (to give CLint,u) and scaled to in vivo values (mL/min/kg) using published physiological scaling factors ([28]). Blood clearance in each species was then calculated using the well-stirred model of hepatic extraction (equation 2) where Q is the hepatic blood flow and fu,blood is calculated from fu,plasma/B:P: [2] PredictedCLblood=Q x fu,blood x CLint,u/Q+fu,blood x CLint,u
Blood clearance values were converted to plasma clearance by multiplying by the B:P.

[4] = In vivo pharmacokinetics; parameters: species or system female BALB/c mice; details: female, BALB/c, plasma
Protocol: Single dose intravenous (IV) pharmacokinetic (PK) studies in male Sprague Dawley rats and IV and oral PK studies in female BALB/c mice were conducted at Monash University. […] Blood was sampled via a cannula implanted in the carotid artery (also on the day prior to dosing) at pre-determined time points up to 24 h post-dose. Samples were transferred to vials containing heparin as an anticoagulant, gently mixed and centrifuged, and plasma separated for subsequent quantitative analysis using LC-MS. […] A dose of 25 mg/kg prepared in an aqueous suspension vehicle containing 0.5% hydroxypropyl methylcellulose, 0.5% benzyl alcohol and 0.4% polysorbate 80 (0.2 mL per mouse) was also dosed via oral gavage. Mouse blood was sampled via submandibular bleed up to 24 h post-dose (n=2 mice per time point, n=3 samples per mouse) into vials containing heparin and plasma was separated for quantitative analysis as described above.
Additional PK studies were also conducted by WuXi AppTec Co, Ltd (Shanghai, China) according to protocols reviewed and approved by DNDi. […] IV and oral formulations for rats, mice and hamsters were the same as described above. For dogs, the IV dose was administered in saline containing 2% DMSO and 3% Solutol HS-15 and the oral formulation was as described above. Blood was sampled up to 48 h post-dose into vials containing potassium EDTA as an anticoagulant, proteins were precipitated with acetonitrile and plasma was separated and assayed by LC-MS.
Single dose pharmacokinetic parameters (clearance, volume of distribution and half-life) were initially estimated using non-compartmental methods and oral bioavailability was calculated using the ratio of the dose corrected AUC after oral dosing relative to that after IV administration. […] Where a full concentration versus time profile was obtained from a single animal, parameters were estimated for each animal and mean and standard deviations calculated. In the case of mice where sparse sampling was used with multiple animals per time point, the data analysis was conducted using the mean profile.

[5] = system: BALB/c 3T3 mouse fibroblasts; test: In vitro 3T3 Neutral Red Uptake (NRU) phototoxicity assay; assay type: cell-based; details: 3T3 NRU
Protocol: Extinction coefficients were 16131 and 8507 L mol^-1 cm^-1, respectively. An in vitro 3T3 Neutral Red Uptake (NRU) phototoxicity assay was then conducted using a 96-well cytotoxicity-based assay that utilizes normal BALB/c 3T3 mouse fibroblasts to measure the concentration-dependent reduction in neutral red uptake by the cells after exposure to test material either in the presence or absence of UVA light. The assay was performed according to OECD (Test No. 432) test guidance ([42]). Duplicate 96-well monolayers of 3T3 fibroblasts were exposed to serial dilutions of test material. One of the plates was exposed to 5 J/cm2 UVA while the other plate was kept in the dark. To assess viability, the NRU by cells exposed to the test chemical in the presence of UVA exposure was compared to the NRU by cells exposed to the test chemical in the absence of UVA exposure. The Photo-Irritation-Factor (PIF) and Mean Photo Effect (MPE) were calculated.

[6] = system: AR; test: In vitro pharmacology panel (Eurofins); assay type: binding, human; details: 10 µM
From the text: Listed values represent the percent change relative to the DMSO control activity. When an IC50 had to be determined, eight different concentrations were included. All values are the mean of assay readout duplicates.

[7] = system: HEK293F-derived mitochondria; test: Calcium loading capacity (CLC) assessment; assay type: biochemical
Protocol: The CLC of frozen HEK293F-derived mitochondria was determined using a method based on that previously described for fresh rat liver mitochondria ([23]). Briefly, a buffer (130 mM Sucrose, 37.54 mM KCl, 2.5 mM KH2PO4, 5 mM HEPES) containing 0.5 mM Ca^2+ and supplemented with 15 mM succinate, 2.5 μM rotenone and 0.15 μg/ml cell impermeant Fluo 5N (Life Technologies), was added to each well of a 384 well microplate (control wells also contained 0.24 μl/well DMSO or 3 μM cyclosporine). Thawed mitochondria suspended at 0.6 mg/ml were added to all wells to initiate the assay, and the fluorescence measured every 5 minutes at 520 nm in a PHERAstar FS microplate reader (BMG LabTech, Aylesbury, UK), (25 reads over 2 hours). Area under the curve (AUC) values for the first 10 reads were exported and the concentration-response relationship was modelled using the following formula: y=((B-A)/(1+(10^X/10^C)^D)+A where B=max, A=min, C=IC50, D=slope. The fitted curves were then used to calculate a pXC50 value.

For `Cc1[nH]c2nc(N)nc(C)c2c1-c1ccc(C#N)c2c1OCO2` [DNDI-6174], which EC50 [1] is on record?
Its EC50 is 0.075 ± 0.002 µM.

And the “pKa (measured)” value [2]?
The value was 5.58.

And the “Log D7.4 (measured)” value ([2]; octanol-pH 7.4 buffer)?
Its value is 2.57.

And the logD ([2]; octanol/pH 7.4 buffer, pH 7.4, octanol-pH 7.4 buffer, read-out: Log D7.4 (measured))?
The logD was 2.6.

What about the pKa ([2]; read-out: pKa (measured)) of the same molecule?
The pKa was 5.6.

What about the “Microsome predicted in vivo CLplasma” value ([3]; Human) of the same molecule?
The value was 0.86 mL/min/kg.

What about the “In vitro Microsome CLint” value ([3]; Human, 2 independent experiments, ± standard error of estimate) of the same molecule?
Its value is 7.2 ± 1.2 µL/min/mg.

What about the microsomal CLint at 0.5 µM ([3]; human, liver microsomes, pH 7.4, Human, 2 independent experiments, ± standard error of estimate, read-out: In vitro Microsome CLint) of the same molecule?
Its microsomal CLint at 0.5 µM is 6.4 ± 0.75 µL/min/mg.

And the clearance ([4]; mouse, iv, 2 mg/kg, intravenous 2.0 mg/kg, read-out: Plasma CL)?
The clearance was 7.46 mL/min/kg.

What about the half-life ([4]; Mouse, intravenous 2.0 mg/kg, read-out: Apparent t1/2 (converted)) of the same molecule?
Its half-life is 2 h.

And the Cmax ([4]; Mouse, oral 25 mg/kg)?
Its Cmax is 10400 ng/mL.

And the Tmax ([4]; Mouse, oral 25 mg/kg)?
The Tmax was 1 h.

And the bioavailability ([4]; Mouse, oral 25 mg/kg)?
Its bioavailability is > 100%.

What about the “risk of being phototoxic, in words” value [5] of the same molecule?
Its value is “discarded”.

And the “activity (% of DMSO control)” value [6]?
Its value is 99.1%.

And the “Mean pXC50, calcium loading capacity” value ([7]; HEK mitochondria)?
The value was 5.

What about the “XC50, reduction in calcium loading capacity” value ([7]; isolated HEK mitochondria) of the same molecule?
Its value is 10 µM.

Source: article PMC7615677 (Science translational medicine, 2023)
